The record followed here is US8288371B2, “Ortho pyrrolidine, benzyl-substituted heterocycle CCR1 antagonists for autoimmune diseases and inflammation” (Pharmacopeia, LLC, priority 2007, dated 2012).

A value given as a limit tells only on which side of the number the result lay.

A word on the IC50: it is the concentration needed to halve the response being measured.

The target in the assay is T1, human CCR1 (Homo sapiens, UniProt P32246).
T1 sequence (P32246 1-355): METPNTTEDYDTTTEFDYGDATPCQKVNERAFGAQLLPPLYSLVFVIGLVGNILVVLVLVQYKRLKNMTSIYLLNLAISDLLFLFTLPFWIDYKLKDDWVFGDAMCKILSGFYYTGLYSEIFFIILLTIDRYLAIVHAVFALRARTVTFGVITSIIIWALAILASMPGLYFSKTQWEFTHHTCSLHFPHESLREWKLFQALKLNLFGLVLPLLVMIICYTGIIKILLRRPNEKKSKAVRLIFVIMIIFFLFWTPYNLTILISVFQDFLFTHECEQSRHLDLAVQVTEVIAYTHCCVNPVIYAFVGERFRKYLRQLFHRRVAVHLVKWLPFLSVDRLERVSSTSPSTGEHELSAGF
Briefly: CCR1 binding protocol (SPA, [125I]-MIP-1α displacement). To be noted: cell membrane expressing human CCR1, 0.1 nM [125I]-MIP-1α, 4 hours at ambient temperature; read-out: Relative potency (IC50). The method, boiled down:
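Displacement of 0.1 nM [125I]-MIP-1α (final) from membranes expressing human CCR1 was measured by scintillation proximity after 4 h at ambient temperature. Conditions: pH 7.4 Tris buffer with 0.1% BSA and MnCl, and 0.5 μg membrane per well. Compounds were tested as a 10-step ½-log series from a 10 mM DMSO stock to derive IC50.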
As to `CCOC1CCC(NC(=O)N2CCC[C@@H]2c2nnc(C)n2Cc2ccc(Cl)cc2)CC1` (some centres unmarked) [Compound 305], the IC50 was in the range of 500 to 5000 nM.
The figure for `Cc1onc(-c2cccnc2)c1NC(=O)N1CCC[C@@H]1c1nnc(C)n1Cc1ccc(Cl)cc1` [Compound 306] is under 50 nM.
In the case of `Cc1nnc([C@H]2CCCN2C(=O)N[C@@H](C)c2cc3cc(Cl)ccc3o2)n1Cc1ccc(Cl)cc1` [Compound 307], the IC50 is under 50 nM.
On to `O=C(N[C@H]1CCOc2cc(C(F)(F)F)ccc21)N1CCC[C@@H]1c1nnc(CO)n1Cc1ccc(Cl)cc1` [Compound 308], for which the IC50 is under 50 nM.
For `Cc1noc(-c2ccccc2)c1NC(=O)N1CCC[C@@H]1c1nnc(CO)n1Cc1ccc(Cl)cc1` [Compound 309], the IC50 was under 50 nM.
As for `O=C(Nc1ccc(Cl)cc1F)N1CCC[C@@H]1c1nnc(CO)n1Cc1ccc(Cl)cc1` [Compound 310], the IC50 was 50 to 500 nM.
Turning to `CCc1nnc([C@H]2CCCN2C(=O)NCc2ccc(C(F)(F)F)cc2)n1Cc1ccc(Cl)cc1` [Compound 311], the IC50 is 50 to 500 nM.
As for `O=C(NCc1ccc(C(F)(F)F)cc1)N1CCC[C@@H]1c1nnc(CO)n1Cc1ccc(Cl)cc1` [Compound 312], the IC50 was under 50 nM.
On to `O=C(NCc1ccc(Cl)cc1Cl)N1CCC[C@@H]1c1nnc(CO)n1Cc1ccc(Cl)cc1` [Compound 313], for which the IC50 is under 50 nM.
On to `CC[C@H](NC(=O)N1CCC[C@@H]1c1nnc(C)n1Cc1ccc(Cl)cc1)c1ccc(C(F)(F)F)c(F)c1` [Compound 314], for which the IC50 lay in the range of 50 to 500 nM.
For `CNC(=O)c1ccc(Cl)c(NC(=O)N2CCC[C@@H]2c2nnc(C)n2Cc2ccc(Cl)cc2)c1` [Compound 315], the IC50 was in the range of 50 to 500 nM.
As for `Cc1ccnc(C)c1NC(=O)N1CCC[C@@H]1c1nnc(C)n1Cc1ccc(Cl)cc1` [Compound 316], the IC50 is under 50 nM.
Consider `COC(=O)c1ccc(C(F)(F)F)c(NC(=O)N2CCC[C@@H]2c2nnc(C)n2Cc2ccc(Cl)cc2)c1` [Compound 317], for which the IC50 is 50 to 500 nM.
For `COC(=O)c1cc(NC(=O)N2CCC[C@@H]2c2nnc(C)n2Cc2ccc(Cl)cc2)c(C)cc1C` [Compound 318], the IC50 was under 50 nM.
The figure for `Cc1noc(C)c1N/C(=N/C#N)N1CCC[C@@H]1c1nnc(C)n1Cc1ccc(Cl)cc1` [Compound 319] is 50 to 500 nM; for `Cc1nn(C)c(C)c1NC(=O)N1CCC[C@@H]1c1nnc(C)n1Cc1ccc(Cl)cc1` [Compound 320] it is under 50 nM.
For `Cc1nnc([C@H]2CCCN2C(=O)Nc2ccc3nonc3c2)n1Cc1ccc(Cl)cc1` [Compound 321], the IC50 lay in the range of 50 to 500 nM.
Take `Cc1ccc(C(C)(C)NC(=O)N2CCC[C@@H]2c2nnc(C)n2Cc2ccc(Cl)cc2)cc1` [Compound 322]: the IC50 is under 50 nM.
Turning to `Cc1noc(C)c1NC(=O)N1CCC[C@@H]1c1nnc(CO)n1Cc1ccc(Cl)cc1` [Compound 323], the IC50 lay in the range of 50 to 500 nM.
Turning to `Cc1noc(C)c1NC(=O)N1CCC[C@@H]1c1nnc(C)n1C1(c2ccc(Cl)cc2)CC1` [Compound 324], the IC50 is 50 to 500 nM.
On to `Cc1nnc([C@H]2CCCN2C(=O)Nc2ccc(Cl)cc2F)n1C1(c2ccc(Cl)cc2)CC1` [Compound 325], for which the IC50 lay in the range of 50 to 500 nM.
`Cc1nc(C)c(NC(=O)N2CCC[C@@H]2c2nnc(C)n2Cc2ccc(Cl)cc2)c(C)n1` [Compound 326]: the IC50 was under 50 nM.
For `Cc1nnc([C@H]2CCCN2C(=O)Nc2ccc3c(c2)N(C)C(=O)CO3)n1C1(c2ccc(Cl)cc2)CC1` [Compound 327], the IC50 is 50 to 500 nM.
For the molecule `Cc1nnc([C@H]2CCCN2C(=O)N[C@H]2CCOc3cc(C(F)(F)F)ccc32)n1C1(c2ccc(Cl)cc2)CC1` [Compound 328], the IC50 is 50 to 500 nM.
On to `Cc1nnc([C@H]2CCCN2C(=O)NC2(c3ccccc3)CC2)n1C1(c2ccc(Cl)cc2)CC1` [Compound 329], for which the IC50 is 50 to 500 nM.
Regarding `Cc1nnc([C@H]2CCCN2C(=O)Nc2ccc(S(C)(=O)=O)cc2)n1Cc1ccc(Cl)cc1` [Compound 330], the IC50 is 50 to 500 nM.
The figure for `Cc1nnc([C@H]2CCCN2C(=O)Nc2ccc(S(C)(=O)=O)cc2Cl)n1Cc1ccc(Cl)cc1` [Compound 331] is 50 to 500 nM; for `Cc1nnc([C@H]2CCCN2C(=O)Nc2cc(C(N)=O)ccc2Cl)n1Cc1ccc(Cl)cc1` [Compound 332] it is 50 to 500 nM; for `Cc1nnc([C@H]2CCCN2C(=O)NC2CCOCC2)n1Cc1ccc(Cl)cc1` [Compound 333] it is 500 to 5000 nM.
In the case of `Cc1nnc([C@H]2CCCN2C(=O)Nc2cccc(S(C)(=O)=O)c2)n1Cc1ccc(Cl)cc1` [Compound 334], the IC50 lay in the range of 500 to 5000 nM.
The figure for `Cc1nnc([C@H]2CCCN2C(=O)Nc2cc(C(=O)O)ccc2C(F)(F)F)n1Cc1ccc(Cl)cc1` [Compound 335] is 500 to 5000 nM; for `Cc1nnc([C@H]2CCCN2C(=O)N[C@H]2CCOc3cc(C(F)(F)F)ccc32)n1Cc1cccc(Cl)c1` [Compound 336] it is 500 to 5000 nM.
Turning to `Cc1nnc([C@H]2CCCN2C(=O)N[C@H]2CCOc3cc(C(F)(F)F)ccc32)n1[C@@H](C)c1ccc(Cl)cc1` [Compound 337], the IC50 fell in the range of 50 to 500 nM.
As for `N#Cc1ccc2c(c1)OCC[C@@H]2NC(=O)N1CCC[C@@H]1c1nnc(CO)n1Cc1ccc(Cl)cc1` [Compound 338], the IC50 was under 50 nM.
Turning to `Cc1nnc([C@H]2CCCN2C(=O)Nc2ccc3c(c2)OCC(=O)N3C)n1Cc1ccc(Cl)cc1` [Compound 339], the IC50 fell in the range of 500 to 5000 nM.
Take `N#Cc1ccc2c(c1)OCC[C@H]2NC(=O)N1CCC[C@@H]1c1nnc(CO)n1Cc1ccc(Cl)cc1` [Compound 340]: the IC50 was under 50 nM.
As to `Cc1cc(NC(=O)N2CCC[C@@H]2c2nnc(C)n2Cc2ccc(Cl)cc2)n(-c2ccccc2)n1` [Compound 341], the half-maximal inhibitory concentration (IC50) was under 50 nM.
Regarding `Cc1nnc([C@H]2CCCN2C(=O)Nc2ccc(Cl)cc2F)n1[C@@H](C)c1ccc(Cl)cc1` [Compound 342], the IC50 fell in the range of 500 to 5000 nM.
Consider `Cc1nnc([C@H]2CCCN2C(=O)N[C@@H](C)C(C)C)n1Cc1ccc(Cl)cc1` [Compound 343], for which the IC50 is 50 to 500 nM.
Turning to `Cc1nnc([C@H]2CCCN2C(=O)Nc2ncc(Cl)cn2)n1Cc1ccc(Cl)cc1` [Compound 344], the IC50 is 500 to 5000 nM.
Regarding `Cc1nnc([C@H]2CCCN2/C(=N\C#N)N[C@H]2CCOc3cc(C#N)ccc32)n1Cc1ccc(Cl)cc1` [Compound 345], the IC50 lay within 50 to 500 nM.
As to `Cc1cc(C)c(C(=O)O)cc1NC(=O)N1CCC[C@@H]1c1nnc(C)n1Cc1ccc(Cl)cc1` [Compound 346], the IC50 was 50 to 500 nM.
On to `Cc1nnc([C@H]2CCCN2C(=O)Nc2cc(C(=O)N(C)C)ccc2Cl)n1Cc1ccc(Cl)cc1` [Compound 347], for which the IC50 was under 50 nM.
Consider `Cc1ncncc1NC(=O)N1CCC[C@@H]1c1nnc(C)n1Cc1ccc(Cl)cc1` [Compound 348], for which the IC50 was under 50 nM.
For `Cc1nnc([C@H]2CCCN2C(=O)Nc2ccc(Cl)cc2F)n1[C@H](C)c1ccc(Cl)cc1` [Compound 349], the IC50 lay in the range of 50 to 500 nM.
As to `Cc1nc(Cl)ncc1NC(=O)N1CCC[C@@H]1c1nnc(C)n1Cc1ccc(Cl)cc1` [Compound 350], the IC50 was under 50 nM.
For the molecule `Cc1nnc([C@H]2CCCN2C(=O)NC2(c3ccccc3)CC2)n1[C@@H](C)c1ccc(Cl)cc1` [Compound 351], the IC50 is 50 to 500 nM.
For `Cc1nnc([C@H]2CCCN2C(=O)Nc2ccc3c(c2)N(C)C(=O)CO3)n1[C@H](C)c1ccc(Cl)cc1` [Compound 352] the value was 50 to 500 nM; for `Cc1nnc([C@H]2CCCN2C(=O)N[C@H]2CCOc3cc(C(F)(F)F)ccc32)n1[C@H](C)c1ccc(Cl)cc1` [Compound 353], 50 to 500 nM.
The figure for `Cc1nnc([C@H]2CCCN2C(=O)Nc2cccc(S(N)(=O)=O)c2)n1Cc1ccc(Cl)cc1` [Compound 354] is 500 to 5000 nM.
On to `Cc1nnc([C@H]2CCCN2C(=O)Nc2ccc(S(N)(=O)=O)cc2)n1Cc1ccc(Cl)cc1` [Compound 355], for which the IC50 is 500 to 5000 nM.
The figure for `Cc1nnc([C@H]2CCCN2C(=O)Nc2cc(-c3ccccc3)nn2C)n1Cc1ccc(Cl)cc1` [Compound 356] is under 50 nM; for `Cc1nnc([C@H]2CCCN2C(=O)NC2(c3ccccc3)CC2)n1[C@H](C)c1ccc(Cl)cc1` [Compound 357] it is 50 to 500 nM; for `Cc1nnc([C@H]2CCCN2C(=O)Nc2cc(C(N)=O)ccc2C(F)(F)F)n1Cc1ccc(Cl)cc1` [Compound 358] it is 50 to 500 nM.
On to `CNC(=O)c1ccc(C(F)(F)F)c(NC(=O)N2CCC[C@@H]2c2nnc(C)n2Cc2ccc(Cl)cc2)c1` [Compound 359], for which the IC50 is under 50 nM.
With `CNC(=O)c1ccc(C)c(N/C(=N/C#N)N2CCC[C@@H]2c2nnc(C)n2Cc2ccc(Cl)cc2)c1` [Compound 360], the IC50 is 50 to 500 nM.
With `Cc1cc(C)c(S(C)(=O)=O)cc1NC(=O)N1CCC[C@@H]1c1nnc(C)n1Cc1ccc(Cl)cc1` [Compound 361], the IC50 was under 50 nM.
Regarding `Cc1ccc(NC(=O)N2CCC[C@@H]2c2nnc(C)n2Cc2ccc(Cl)cc2)c(C)n1` [Compound 362], the IC50 is under 50 nM.
For the molecule `Cc1cc(C)c(C(N)=O)cc1NC(=O)N1CCC[C@@H]1c1nnc(C)n1Cc1ccc(Cl)cc1` [Compound 363], the IC50 fell in the range of 50 to 500 nM.
Take `Cc1nnc([C@H]2CCCN2C(=O)Nc2ccc(Cl)cc2F)n1Cc1ccc(Cl)nc1` [Compound 364]: the concentration for half-maximal inhibition (IC50) was in the range of 500 to 5000 nM.
As for `Cc1noc(C)c1NC(=O)N1CCC[C@@H]1c1nnc(C)n1[C@H](C)c1ccc(Cl)cc1` [Compound 365], the IC50 fell in the range of 50 to 500 nM.
Take `Cc1noc(C)c1NC(=O)N1CCC[C@@H]1c1nnc(C)n1Cc1ccc(Cl)nc1` [Compound 366]: the IC50 lay in the range of 50 to 500 nM.
